According to article PMC11647725, “Discovery of 4-(5-Membered)Heteroarylether-6-methylpicolinamide Negative Allosteric Modulators of Metabotropic Glutamate Receptor Subtype 5” (ACS Medicinal Chemistry Letters, 2024):

What was measured:
[1] = Intrinsic clearance in human liver microsomes; type: in vitro ADME
Experimental: (§1) Mean values for each species were calculated from 3 replicates.
(§2) Intrinsic Clearance in Rat and Human Liver Microsomes
(§3) The in vitro intrinsic clearance (CL int) was investigated in commercially obtained hepatic microsomes from rat and human donors using the substrate depletion (i.e., loss-of-parent vs. time, or t 1/2 method) approach with analyte detection via liquid chromatography-tandem mass spectrometry (LC-MS/MS). For each species, mean %parent remaining values at each time point were calculated from replicates raw data (analyte:IS peak area ratios) and used to determine in vitro t 1/2 and CLint.
(§4) Experiments were carried out using a robot-assisted (TECAN model Evo 200). Compound was incubated (1 µM final concentration) in buffer (100 mM potassium phosphate pH 7.4 with 3 mM MgCl2) containing hepatic microsomes (0.5 mg/mL final concentration) from multiple species, discretely, at 37 °C under constant orbital shaking. After 5 minutes (pre-incubation), reactions were initiated by addition of nicotinamide adenine dinucleotide phosphate (NADPH, 1 mM final concentration). At selected time intervals (0, 3, 7, 15, 25, and 45 minutes) post-addition of NADPH, aliquots (50 µL) were taken and placed into a 96-shallow-well plate containing ice cold acetonitrile (150 µL) with carbamazepine (IS, 50 nM). The plates were then centrifuged (3000 rcf at 4 °C) for 10 minutes. The supernatants were transferred to a new 96-shallow-well daughter plate and diluted (1:1 v/v) with water (Milli-Q filtered). The plates were then sealed in preparation for LC-MS/MS analysis (see below).
(§5) Raw LC-MS/MS peak area data generated from the assay samples were used to construct natural log-transformed %parent remaining vs. time plots (using t = 0 minute post-NADPH addition sample data as starting point set to 100%). In vitro compound half-life (t 1/2) values were obtained using the following […]
(§6) k is the slope from linear regression analysis of the natural log-transformed data (using means from Where all replicates at each time point). Resulting t 1/2 values were then used to calculate hepatic CLint values according to the following equation and with the use of species-specific scale-up factors for liver weight (grams) per total body weight (kg): […]
(§7) CLint = in vitro t1/2 x 0.5 mg microsomes x 1 gram liver x kg body wt aScale-up factors used are 45 (rat) and 20 (human).4
(§8) Predicted hepatic clearance (CLhep) was calculated using the following equation: […]
(§9) Qh represents hepatic blood flow (mL/min/kg): 21 for human, 70 for rat, and 90 for mouse.
(§10) Prepared samples were injected (10 µL each) onto an AB Sciex Triple Quad 4500 mass spectrometer system with an Agilent 1260 Infinity II pump and autosampler. Mass spectrometer conditions are described in Table S1. Quantitation of compounds was performed via AB Sciex Multiquant software using the raw analyte:IS peak area ratios. The typical detection range was 0.5 ng/mL to ≥ 5,000 ng/mL utilizing a quadratic equation regression with 1/x2 weighting.
(§11) Correction for dilution of all brain samples (in extraction buffer and subsequently in blank plasma, as previously described) was performed post-quantitation. The corrections for dilution in extraction buffer employed correction factors specific to each brain weight (not shown).

[2] = IV plasma-brain level determination (PBL) in rat; type: in vivo; conditions: male, Sprague-Dawley, brain and plasma, SD rat, 0.2 mg/kg IV
Opiate κ (OP2, KOP) = Opiate κ (OP2, KOP) (Homo sapiens, UniProt P41145); test: Lead Profiling Screen, Eurofins Panlabs; type: binding; conditions: hum, read-out: % inh at 10 μM
Opiate κ (OP2, KOP), sequence (P41145 whole entry): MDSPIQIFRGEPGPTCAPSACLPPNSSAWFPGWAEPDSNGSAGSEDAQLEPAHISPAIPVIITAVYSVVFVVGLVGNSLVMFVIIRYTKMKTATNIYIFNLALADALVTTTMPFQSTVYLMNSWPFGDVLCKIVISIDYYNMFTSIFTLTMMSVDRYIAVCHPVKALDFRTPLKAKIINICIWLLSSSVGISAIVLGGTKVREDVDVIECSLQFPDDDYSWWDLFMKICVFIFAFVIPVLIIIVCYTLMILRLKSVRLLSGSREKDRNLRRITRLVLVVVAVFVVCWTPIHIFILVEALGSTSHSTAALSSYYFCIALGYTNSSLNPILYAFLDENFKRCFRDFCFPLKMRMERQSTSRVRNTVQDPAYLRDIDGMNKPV

Neuropeptide Y Y2 = Neuropeptide Y Y2 (Homo sapiens, UniProt P49146); test: Lead Profiling Screen, Eurofins Panlabs; type: binding; conditions: Neuropeptide Y Y2, hum, read-out: % inh at 10 μM
Neuropeptide Y Y2, sequence (P49146 whole entry): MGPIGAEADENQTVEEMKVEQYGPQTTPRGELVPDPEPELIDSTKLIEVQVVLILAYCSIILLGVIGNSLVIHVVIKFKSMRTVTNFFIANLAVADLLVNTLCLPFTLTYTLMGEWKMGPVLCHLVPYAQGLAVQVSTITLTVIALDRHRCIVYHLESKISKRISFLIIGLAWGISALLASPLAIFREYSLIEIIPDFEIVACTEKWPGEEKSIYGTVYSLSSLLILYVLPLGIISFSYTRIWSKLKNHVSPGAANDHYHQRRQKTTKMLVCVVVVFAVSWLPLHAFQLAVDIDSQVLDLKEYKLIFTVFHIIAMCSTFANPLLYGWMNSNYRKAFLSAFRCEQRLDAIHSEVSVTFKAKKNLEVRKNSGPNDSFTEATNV

human mGlu1 = target: T1, human mGlu1 (Homo sapiens, UniProt Q13255); test: mGlu selectivity, calcium mobilization assay; type: cell-based
T1 construct: expressed in transfected cells; host or cells: TREx-293, tetracycline-inducible
T1 sequence (Q13255 19-1194): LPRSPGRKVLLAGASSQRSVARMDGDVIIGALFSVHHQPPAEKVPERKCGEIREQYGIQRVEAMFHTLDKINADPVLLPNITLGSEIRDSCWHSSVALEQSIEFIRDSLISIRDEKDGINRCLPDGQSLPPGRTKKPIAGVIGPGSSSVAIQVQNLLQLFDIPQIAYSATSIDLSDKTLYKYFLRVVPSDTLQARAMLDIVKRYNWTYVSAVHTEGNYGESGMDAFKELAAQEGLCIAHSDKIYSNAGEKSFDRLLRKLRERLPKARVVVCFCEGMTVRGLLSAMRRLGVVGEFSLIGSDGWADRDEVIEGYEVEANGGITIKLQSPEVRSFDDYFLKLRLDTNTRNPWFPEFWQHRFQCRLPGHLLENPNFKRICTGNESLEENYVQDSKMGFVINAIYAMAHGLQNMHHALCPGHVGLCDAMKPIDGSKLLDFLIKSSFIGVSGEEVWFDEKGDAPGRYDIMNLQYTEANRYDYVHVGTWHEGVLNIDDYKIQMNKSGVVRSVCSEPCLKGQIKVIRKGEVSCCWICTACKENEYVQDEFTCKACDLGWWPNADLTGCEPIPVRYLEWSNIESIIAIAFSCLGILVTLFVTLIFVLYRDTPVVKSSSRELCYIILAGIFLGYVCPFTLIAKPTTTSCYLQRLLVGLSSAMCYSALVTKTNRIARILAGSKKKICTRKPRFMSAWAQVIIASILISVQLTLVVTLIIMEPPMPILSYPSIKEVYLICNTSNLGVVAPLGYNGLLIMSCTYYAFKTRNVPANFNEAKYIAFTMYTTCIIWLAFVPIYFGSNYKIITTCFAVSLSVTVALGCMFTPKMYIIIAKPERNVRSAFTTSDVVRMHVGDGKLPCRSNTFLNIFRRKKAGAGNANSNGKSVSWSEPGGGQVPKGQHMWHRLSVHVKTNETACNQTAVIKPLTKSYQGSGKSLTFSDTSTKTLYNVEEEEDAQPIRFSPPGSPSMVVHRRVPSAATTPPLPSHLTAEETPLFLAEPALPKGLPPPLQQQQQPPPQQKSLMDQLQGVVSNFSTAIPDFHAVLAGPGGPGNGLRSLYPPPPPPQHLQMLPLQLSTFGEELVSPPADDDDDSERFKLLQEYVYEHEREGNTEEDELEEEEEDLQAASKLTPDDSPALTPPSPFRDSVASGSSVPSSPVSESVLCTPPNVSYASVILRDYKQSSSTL
Experimental: (§12) the presence of 5% CO2, the dye solutions were removed and replaced with assay buffer using a microplate washer, leaving 20 μL of assay buffer in the cell plate. The compound, agonist, and cell plates were placed inside the Functional Drug Screening System (FDSS 7000 or uCell, Hamamatsu, Japan) to measure the calcium flux. Assays were run at 37 °C. A triple add protocol was used to measure Ca kinetics. Briefly, after establishment of a fluorescence baseline for 2 seconds (excitation, 480 nm; emission, 530 nm), 20 µL of test compound was added to the cells and the response was measured for 140 seconds. This was followed by the addition of 10 µL (5X) of an EC20 concentration of Glu agonist, and the response of the cells was measured for 125 seconds. A third addition occurred by adding 12 uL (5X) of an EC80 concentration of Glu agonist and the response of the cells was measured for 90 seconds. […] Calcium fluorescence was recorded as fold over basal fluorescence and raw data were normalized to the maximal response to Glu agonist (ECMax). Compound-evoked decreases in calcium response in the presence of Glu EC80 agonist were determined as inhibition activity, and potency (IC50) and maximum inhibition responses (% GluMin) of compounds were determined using a four-parameter logistical equation using GraphPad Prism (La Jolla, CA) or the Dotmatics software platform (Woburn, MA) : […]

human mGlu4 = target: T2, human mGlu4 (Homo sapiens, UniProt Q14833); test: mGlu selectivity, calcium mobilization assay; type: cell-based
T2 construct: expressed in transfected cells
T2 sequence (Q14833 33-912): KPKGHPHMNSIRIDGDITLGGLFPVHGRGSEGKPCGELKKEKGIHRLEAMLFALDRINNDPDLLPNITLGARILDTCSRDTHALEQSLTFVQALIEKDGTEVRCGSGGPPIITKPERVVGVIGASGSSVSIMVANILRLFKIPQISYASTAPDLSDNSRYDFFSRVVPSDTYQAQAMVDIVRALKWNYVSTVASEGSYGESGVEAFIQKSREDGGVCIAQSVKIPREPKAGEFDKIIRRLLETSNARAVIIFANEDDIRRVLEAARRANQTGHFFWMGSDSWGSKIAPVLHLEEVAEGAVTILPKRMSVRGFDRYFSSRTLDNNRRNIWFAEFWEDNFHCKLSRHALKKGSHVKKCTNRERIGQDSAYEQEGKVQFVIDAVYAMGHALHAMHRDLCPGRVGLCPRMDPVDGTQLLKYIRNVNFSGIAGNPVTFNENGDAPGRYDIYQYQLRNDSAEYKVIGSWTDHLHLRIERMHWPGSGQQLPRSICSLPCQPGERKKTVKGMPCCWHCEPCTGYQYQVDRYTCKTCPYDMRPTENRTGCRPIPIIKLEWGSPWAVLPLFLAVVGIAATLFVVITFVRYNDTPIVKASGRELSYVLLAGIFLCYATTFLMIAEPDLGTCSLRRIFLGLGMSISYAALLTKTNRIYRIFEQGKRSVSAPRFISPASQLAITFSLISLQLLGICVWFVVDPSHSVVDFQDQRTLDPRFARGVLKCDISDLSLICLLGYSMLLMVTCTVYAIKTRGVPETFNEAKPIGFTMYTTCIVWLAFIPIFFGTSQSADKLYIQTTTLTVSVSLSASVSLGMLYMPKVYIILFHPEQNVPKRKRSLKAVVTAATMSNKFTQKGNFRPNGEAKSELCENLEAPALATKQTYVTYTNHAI
Experimental: as §12

[3] = Intrinsic clearance in rat liver microsomes; type: in vitro ADME
Experimental: as §1, §2, §3, §4, §5, §6, §7, §8, §9, §10, §11

[4] = predicted hepatic clearance based on microsomal CLint

Cc1cc(Oc2cnn(C)c2)cc(C(=O)Nc2ccc(F)cn2)n1 [22iA]
CLint scaled at 40 min, 1 µM ([1]; pH 7.4, human liver microsomes): 9 mL/min/kg | CLhep, human [1, 4]: 6 mL/min/kg | Kp at 0.25 h ([2]; total brain-to-plasma partition ratio): 1.68 | Kp uu at 0.25 h ([2]; unbound brain-to-plasma partition ratio): 0.34 | inhibition at 10 µM (Opiate κ (OP2, KOP)): 2% | inhibition at 10 µM (Neuropeptide Y Y2): -5% | IC50, human mGlu1 (human mGlu1): inactive | IC50, human mGlu4 (human mGlu4): inactive | CLint scaled at 40 min, 1 µM ([3]; pH 7.4, rat liver microsomes): 48 mL/min/kg | CLhep, rat [3, 4]: 28 mL/min/kg
